Assay results as given in publication PMC8424217 (The Journal of Biological Chemistry, 2021).
Blank lines part the entries; values can stand above or below the compound they belong to. Peptide text beside a SMILES is read from it. * marks the point of attachment. Palmitoyl = CCCCCCCCCCCCCCCC(=O)*

What was measured:
hUT [1] = target: T1, hUT (Homo sapiens, UniProt Q9UKP6); experiment: ERK1/2 phosphorylation, western blot, HEK 293-hUT cells; type: cell-based; parameters: expressed in transfected cells; host or cells: CHO-K1 cells stably expressing hUT (gift from H. Vaudry and C. Dubessy, University of Rouen); conditions: for effect of YM254890 (Gq inhibitor) on ERK1/2 phosphorylation induced by the peptide: YM254890 100 nM 1 h pretreatment, hUT-Pep2 at 5 min, [Trp^1, Leu^2]hUT-Pep3 at 5 and 10 min, p < 0.05; for effect of YM254890 (Gq inhibitor) on ERK1/2 phosphorylation induced by the peptide / time of maximal ERK1/2 phosphorylation (for [Trp^1, Leu^2]hUT-Pep3: time to reach efficacy similar to hUII): pepducins 10^−5 M; for time of maximal ERK1/2 phosphorylation (for [Trp^1, Leu^2]hUT-Pep3: time to reach efficacy similar to hUII): hUII 10^−7 M
T1 sequence (Q9UKP6 1-389): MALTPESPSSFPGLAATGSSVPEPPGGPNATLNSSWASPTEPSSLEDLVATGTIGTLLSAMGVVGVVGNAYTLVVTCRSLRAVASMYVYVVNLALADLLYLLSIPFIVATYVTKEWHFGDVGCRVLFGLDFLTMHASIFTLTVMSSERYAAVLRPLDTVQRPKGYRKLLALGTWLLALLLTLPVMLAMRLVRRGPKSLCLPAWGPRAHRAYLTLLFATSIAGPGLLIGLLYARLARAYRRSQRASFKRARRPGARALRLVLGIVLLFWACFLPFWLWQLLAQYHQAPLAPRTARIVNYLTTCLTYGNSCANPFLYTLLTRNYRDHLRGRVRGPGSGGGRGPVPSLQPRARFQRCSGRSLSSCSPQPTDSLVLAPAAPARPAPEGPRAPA
Protocol: Curves represent mean ± SEM of three independent kinetic experiments performed in triplicate.
CHO cells stably expressing hUT (CHO-hUT; gift from Drs H. Vaudry et C. Dubessy, University of Rouen, France) were grown in 12-well plates to 70–80% confluence and starved for 6 h in a serum-free medium. […] Briefly, HEK 293-hUT cells, grown in 12-well plates to 70–80% confluence, were starved for 6 h in a serum-free medium. […] Cells were then rinsed twice with ice-cold PBS and homogenized in 0.5 ml of lysis buffer (20 mM Tris, 150 mM NaCl, 1 mM EDTA, 1 mM EGTA, 1% Triton X-100, 2.5 mM sodium pyrophosphate, 1 mM β-glycerolphosphate, 1 mM Na3VO4, 1 μg mL^−1 leupeptin, 1 mM PMSF, 1 mM DTT) at 4 °C. Insoluble material was removed by centrifugation at 12,000 rpm for 30 min. The extract was treated with Laemmli sample buffer and heated for 5 min at 95 °C. Aliquots were assayed for protein concentration (BioRad) and an equal amount of total protein was subjected to 12% SDS–PAGE, followed by transfer to a nitrocellulose membrane. The membrane was blocked and then probed with primary antibody (phospho-p44/42 MAPK) at the optimal dilution (1/2000) with gentle agitation overnight at 4 °C. After washing with TTBS, membranes were then incubated with secondary antibody, conjugated with horseradish peroxidase (anti-rabbit HRP) diluted in TBST containing 5% skim milk (w/v) for 1 h at room temperature. Immunoreactive species were visualized by enhanced chemiluminescence using X-ray film and Thermo Scientific SuperSignal chemiluminescent substrates according to the manufacturer's instructions. Films were digitized and the intensity of the immunoreactive bands determined using Quantity One software from Bio-Rad.

rat thoracic aorta rings = target: T2, rat thoracic aorta rings (Rattus norvegicus, UniProt P49684); experiment: Modulation of hUII-mediated rat aortic ring contraction; conditions: for Emax: read-out: hUII Emax after pepducin pretreatment
T2 sequence (P49684 1-386): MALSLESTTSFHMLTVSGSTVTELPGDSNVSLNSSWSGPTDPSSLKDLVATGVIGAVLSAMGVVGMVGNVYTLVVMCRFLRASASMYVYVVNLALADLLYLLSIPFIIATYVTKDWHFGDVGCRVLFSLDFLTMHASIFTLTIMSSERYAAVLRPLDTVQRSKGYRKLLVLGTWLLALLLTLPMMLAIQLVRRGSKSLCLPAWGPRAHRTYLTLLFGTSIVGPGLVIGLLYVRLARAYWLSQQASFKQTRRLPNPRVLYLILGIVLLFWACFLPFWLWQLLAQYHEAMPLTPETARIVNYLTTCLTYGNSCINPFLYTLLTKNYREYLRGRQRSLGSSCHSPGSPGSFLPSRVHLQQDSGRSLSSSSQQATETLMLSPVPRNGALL
Protocol: Each replicate (n) was conducted on tissue obtained from at least three different animals. Data represent mean ± SEM.
Adult male Sprague-Dawley rats (Charles-River) weighing 250–300 g were housed in cages under controlled illumination (12:12 h light–dark cycle), humidity, and temperature (21–23 °C) and had free access to tap water and rat chow. All experimental procedures were performed in accordance with regulations and ethical guidelines from the Canadian Council for the Care of Laboratory Animals and received approvals of the institutional animal care and use committee of the Institut National de la Recherche Scientifique—Centre Armand-Frappier Santé Biotechnologie. As previously described ([17], [18]), the thoracic aorta was cleared of surrounding tissue and then excised from the aortic arch to the diaphragm. Conjunctive tissues were next removed from the thoracic aorta and the vessels were divided into five rings of 4 mm. The endothelium of each aortic ring was removed by gently rubbing the vessel intimal surface. Aortic rings were then placed in a 5 ml organ bath filled with oxygenated normal Krebs–Henseleit buffer. Eighty microliters of a 2.5 M potassium chloride solution (40 mM final concentration) was used to evaluate maximal contractile responses of each vessel. […] Cumulative concentration–response curves to synthetic peptides were obtained by increasing the concentration of each peptide in the remaining organ chambers (10^−11–10^−5 M).

hUT [2] = target: T1, hUT; experiment: Gi activation, BRET biosensor, HEK 293-hUT cells; type: cell-based; parameters: expressed in transfected cells; conditions: for EC50: HEK 293-hUT, BRET, mean ± SEM, n = 3–5, read-out: Gi activation pEC50 (converted)
HEK 293-hUT cells = experiment: Cell proliferation, MTT assay and flow cytometry, HEK 293-hUT cells; type: cell-based; conditions: 10^−6 M, three independent experiments in triplicate
Protocol: Each bar corresponds to the mean ± SEM obtained from three independent experiments conducted in triplicate.
HEK 293-hUT cell proliferation was evaluated by flow cytometry using propidium iodide DNA staining. […] Next, cells were detached, fixed with cold 70% ethanol, and then stored at –20 °C for at least 2 h. Cells were centrifuged at 200 rpm for 10 min at 4 °C and washed at least once with cold PBS. Cells were then resuspended in Triton X-100 (0.1%) supplemented with propidium iodide (500 μg mL^−1), and 200 μg mL^−1 of DNAse-free RNAse A in PBS. Data, expressed as the mean ± SEM of at least three independent experiments, were acquired on a FACScan (BD Biosciences), and results were analyzed with the FlowJo v10 software. The proliferation index is defined as the total number of divisions divided by the number of cells that went into division.

Structure (SMILES): CCCCCCCCCCCCCCCC(=O)N[C@@H](Cc1c[nH]c2ccccc12)C(=O)N[C@@H](CC(C)C)C(=O)N[C@@H](CO)C(=O)N[C@@H](CCC(N)=O)C(=O)N[C@@H](CCCNC(=N)N)C(=O)N[C@@H](C)C(=O)N[C@@H](CO)C(=O)N[C@@H](Cc1ccccc1)C(=O)N[C@@H](CCCCN)C(=O)N[C@@H](CCCNC(=N)N)C(=O)N[C@@H](C)C(=O)N[C@@H](CCCNC(=N)N)C(=O)N[C@@H](CCCNC(=N)N)C(N)=O [[Trp^1, Leu^2]hUT-Pep3] (Palmitoyl-WLSQRASFKRARR-NH2)
effect of YM254890 (Gq inhibitor) on ERK1/2 phosphorylation induced by the peptide (hUT [1]): modest, but significant, inhibitory effect
duration of ERK1/2 activation in presence of YM254890 (hUT [1]; YM254890 100 nM, 0-20 min): this activation is maintained and did not decrease over the studied period of time
time of maximal ERK1/2 phosphorylation (for [Trp^1, Leu^2]hUT-Pep3: time to reach efficacy similar to hUII) (hUT [1]): 10 min
Emax (rat thoracic aorta rings): 35 ± 6%
Emax (hUT [2]): 97 ± 2%
EC50 (hUT [2]): 0.0407 nM
HEK 293-hUT cell proliferation (HEK 293-hUT cells): able to induce HEK 293-hUT cell proliferation

time of maximal ERK1/2 phosphorylation (for [Trp^1, Leu^2]hUT-Pep3: time to reach efficacy similar to hUII) (hUT [1]): 5 min
hUII-mediated contraction pEC50, control (no pretreatment) (rat thoracic aorta rings; rat aortic rings, hUII alone, mean ± SEM, n = 19): 8.69 ± 0.08
Emax at 1 µM (hUT [2]): 93 ± 2%
Structure (SMILES): CC(C)[C@H](NC(=O)[C@@H]1CSSC[C@H](NC(=O)[C@H](CC(=O)O)NC(=O)[C@@H]2CCCN2C(=O)[C@@H](NC(=O)[C@@H](N)CCC(=O)O)[C@@H](C)O)C(=O)N[C@@H](Cc2ccccc2)C(=O)N[C@@H](Cc2c[nH]c3ccccc23)C(=O)N[C@@H](CCCCN)C(=O)N[C@@H](Cc2ccc(O)cc2)C(=O)N1)C(=O)O [hUII, urotensin II, reference compound]
HEK 293-hUT cell proliferation (HEK 293-hUT cells): able to induce HEK 293-hUT cell proliferation

Structure (SMILES): CCCCCCCCCCCCCCCC(=O)N[C@@H](CCCNC(=N)N)C(=O)N1CCC[C@H]1C(=O)N[C@@H](CC(C)C)C(=O)N[C@@H](CC(=O)O)C(=O)N[C@H](C(=O)N[C@H](C(=O)N[C@@H](CCC(N)=O)C(=O)N[C@@H](CCCNC(=N)N)C(=O)N1CCC[C@H]1C(=O)N[C@@H](CCCCN)C(=O)NCC(=O)N[C@@H](Cc1ccc(O)cc1)C(N)=O)C(C)C)[C@@H](C)O [hUT-Pep2] (Palmitoyl-RPLDTVQRPKGY-NH2)
effect of YM254890 (Gq inhibitor) on ERK1/2 phosphorylation induced by the peptide (hUT [1]): modest, but significant, inhibitory effect
time of maximal ERK1/2 phosphorylation (for [Trp^1, Leu^2]hUT-Pep3: time to reach efficacy similar to hUII) (hUT [1]): 5 min
shift of hUII / URP concentration–response curve (rat thoracic aorta rings; rat aortic rings, pepducin 10^−6 M pretreatment): significant rightward shift in the concentration–response curve of hUII but not URP
Emax (rat thoracic aorta rings): 86 ± 3%
Emax (hUT [2]): 96 ± 2%
EC50 (hUT [2]): 0.0813 nM
HEK 293-hUT cell proliferation (HEK 293-hUT cells): not hUT-Pep2 were able to induce HEK 293-hUT cell proliferation
